Columns and labels:
SGC-7901 cells [1] = test: MTT cytotoxicity assay, SGC-7901; format: cell-based, human; conditions: 48 h; for IC50: read-out: IC50 toward SGC-7901
Source text: (§1) The lung carcinoma cell line A549, the cervical cancer cell line HeLa, the esophageal cancer cell line Eca-109, and the human hepatocellular carcinoma cell line BEL-7402 were purchased from the cell bank of the Cell Institute of Sinica Academia Shanghai (Shanghai, China). The gastric adenocarcinoma cell line SGC-7901, the hepatocellular carcinoma cell line HepG2, and the mouse embryonic fibroblast cell line NIH 3T3 were obtained from the Experimental Animal Center of Sun Yat-Sen University (Guangzhou, China). The BEL-7402 and SGC-7901 cell lines were cultured in Roswell Park Memorial Institute Medium (RPMI-1640); and A549, Eca-109, HepG2, and NIH 3T3 cells were grown in Dulbecco’s Modified Eagle’s Medium (DMEM), including 10% fetal bovine serum (FBS), 100 units mL^−1 penicillin/streptomycin mixture, and 2.0 g/L of NaHCO3. Cell passage experiments were performed with trypsin every 2 days to maintain exponential growth. All cells were cultured until they reached logarithmic growth phase, unless specifically noted.
(§2) Cell cytotoxicity following treatment with the iridium(III) complexes was detected by MTT assay. The cells were seeded into 96-well micro-assay culture plates (1 × 10^4 cells per well) and grown overnight in a 5% CO2 incubator at 37 °C. Then, the cell lines were treated with gradient concentrations of the complexes 1–3. After treatment for 48 h, MTT solution (5 mg mL^−1, […]) dissolved in phosphate buffer was added to each well and the cells were further cultured for 4 h. Upon completion of incubation, the solvent was removed and 100 µL/well of buffer containing dimethylformamide (50%) and sodium dodecyl sulfate (20%) was added to dissolve the produced formazan. The absorbance of each well was measured with a microplate reader at a wavelength of 490 nm. The IC50 values were determined from the plots of viability versus concentration used to treat the cells. Three independent experiments were performed to obtain the mean values.

HeLa cells = test: MTT cytotoxicity assay, HeLa; format: cell-based, human; conditions: 48 h, read-out: IC50 toward HeLa
Source text: as §1, §2

SGC-7901 cells [2] = test: Western blot analysis of apoptosis-related proteins; format: cell-based, human; conditions: 4.0 µM 1, 15.0 µM 2, 15.0 µM 3, 24 h
Procedure: The SGC-7901 cancer cells were seeded on 6-well plates at a density of 5 × 10^5 cells per well. Following incubation for 24 h, the cells were treated with 1–3 for 24 h. Next, total proteins were extracted from the cells after incubation in lysis radioimmunoprecipitation assay (RIPA) buffer for 30 min on ice. After centrifugation (13,000× g, 4 °C, 20 min) of the cell suspension, the supernatants were obtained. Protein concentrations were determined using a BCA (bicinchoninic acid) protein assay kit. Equal amounts of denatured proteins were fractionated by electrophoresis on SDS-polyacrylamide gel at 50 V for 3 h. A pre-stained color protein marker was used as the internal reference. The gels were then segmented, transferred to polyvinylidene fluoride (PVDF) membranes (Millipore, Burlington, MA, USA) and then blocked with 5% non-fat milk in TBST buffer (150 mM NaCl, 20 mM Tris-HCl, 0.05% Tween 20, pH = 8.0) for 2 h. […] Further hybridization with the secondary antibodies (diluted 1:5000) conjugated with horseradish peroxidase was performed after washing the membranes three times in TBST buffer with shaking. Each protein was visualized using an enhanced chemiluminescence (ECL) detection kit, in accordance with the manufacturer’s instructions. Finally, the blot images were photographed by a computerized imaging system.

BEL-7402 cells = test: MTT cytotoxicity assay, BEL-7402; format: cell-based, human; conditions: 48 h, read-out: IC50 toward BEL-7402
Source text: as §1, §2

[3] = Oil-water partition coefficient, flask-shake method; format: physicochemical; conditions: octanol/water, pH 7.4, flask-shake, 25 °C
Procedure: The pH of the cells cultured in vitro was approximately 7.4. With this in mind, we evaluated the lipophilicity of the iridium complexes by detecting the partition coefficient at pH = 7.4, using the flask-shake method. Each drug was dissolved in pre-saturated octanol at final concentrations of 0.02 and 0.03 mM. Aliquots of 5 mL of drug solution and distilled water (previously saturated with octanol) were transferred to a 25 mL flask and shaked at 25 °C for 24 h. After the shaking was completed, the solution was allowed to stand for 48 h to fully equilibrate the aqueous phase and the organic phase. The concentration of the complexes in the aqueous phase was then measured by UV-vis spectroscopy at the maximum ultraviolet absorption (262 nm for 1, 249 nm for 2, and 251 nm for 3). The evaluation of each sample was repeated three times.

SGC-7901 cells [4] = test: Cell cycle assay (PI, flow cytometry); format: cell-based, human; conditions: for Percentage in the cells, G0/G1 phase / Phase of cell cycle arrest / Percentage in the cells, G2/M phase / Percentage in the cells, S phase: 4.0 µM 1, 15.0 µM 2, 15.0 µM 3, 24 h; for Percentage in the cells, G2/M phase: control 14.92%; for Percentage in the cells, S phase: control 37.46%
Procedure: Then, each sample was washed twice with cold PBS, re-suspended in 190 μL of PBS buffer containing 4 μL of PI (1 mg/mL), 4 μL of RnaseA (10 mg/mL) and 0.2 μL of Tritonx-100, and stained in the dark for 30 min. Finally, the cells were analyzed by flow cytometry

A549 cells = test: MTT cytotoxicity assay, A549; format: cell-based, human; conditions: 48 h, read-out: IC50 toward A549
Source text: as §1, §2

SGC-7901 cells [5] = test: Annexin V-FITC/PI apoptosis analysis by flow cytometry; format: cell-based, human; conditions: 4.0 µM 1, 15.0 µM 2 or 3; for Early apoptotic cells (EA): 24 h (b62 says 48 h), control 2.84%
Procedure: A total of 1 mL of SGC-7901 cells at 2 × 10^6 cells/mL was seeded in a six-well plate and incubated overnight in a CO2 incubator at 37 °C. Then, the cells were treated with 1, 2, or 3 for 24 h. After treatment, the cells were harvested, washed three times with ice-cold PBS, and then re-suspended in 195 μL of 1 × Annexin V-FITC binding buffer. Next, 10 μL of PI and 5 μL of Annexin-FITC were sequentially added to each sample, stained in the dark for 20 min, and analyzed by a FACS Calibur flow cytometer ([…] Dickinson & Co., Franklin Lakes, NJ, USA). Annexin-V positive cells were considered apoptotic.

SGC-7901 cells [6] = test: Transwell cell invasion assay; format: cell-based, human; conditions: 4.0 µM 1, 15.0 µM 2, 15.0 µM 3, 24 h, Matrigel Transwell
Procedure: To analyze the efficacy of the iridium(III) complexes in preventing migration and offsetting the invasion potential of SGC-7901 cells, 24-well Transwell chambers coated with matrigel were used. The cells were trypsinized and re-suspended in serum-free RPMI-1640 at a density of 1.8 × 10^5 cells/mL. Then, 100 μL of the cell suspension and different concentrations of the complexes were placed in the top chambers of the Transwell plates, and 500 μL of RPMI-1640 containing 20% FBS was added to the lower chambers. After co-incubation for 24 h, non-invading cells in the top chambers of the Transwell plates were scraped away by cotton swabs, and invaded cells were fixed with paraformaldehyde for 15 min and stained with crystal violet solution (0.1%) for 20 min. The cells that invaded the underside of the Transwell plates were photographed with a microscope.

| Compound | IC50 (SGC-7901 cells [1]) [µM] | IC50 (HeLa cells) [µM] | Expression level of Bax (SGC-7901 cells [2]) | Expression level of Bcl-2 (SGC-7901 cells [2]) | Expression level of Bcl-xL (SGC-7901 cells [2]) | Expression level of phosphorylated p53 (P-p53) (SGC-7901 cells [2]) | IC50 (BEL-7402 cells) [µM] | logPo/w [3] | Percentage in the cells, G0/G1 phase (SGC-7901 cells [4]) [%] | Phase of cell cycle arrest (SGC-7901 cells [4]) | Percentage in the cells, G2/M phase (SGC-7901 cells [4]) [%] | Percentage in the cells, S phase (SGC-7901 cells [4]) [%] | IC50 (A549 cells) [µM] | Percentage including early and late apoptotic cells (SGC-7901 cells [5]) [%] | Early apoptotic cells (EA) (SGC-7901 cells [5]) [%] | Inhibitory percentage of cell invasion (SGC-7901 cells [6]) [%] | Increase in the cells at the G0/G1 phase versus control (SGC-7901 cells [4]; 15.0 µM, 24 h) [%] | IC50 toward SGC-7901 (SGC-7901 cells [1]) |
| --- | --- | --- | --- | --- | --- | --- | --- | --- | --- | --- | --- | --- | --- | --- | --- | --- | --- | --- |
| F[P-](F)(F)(F)(F)F.Nc1c(N)c2cccnc2c2ncccc12.[Ir+3].[c-]1ccccc1-c1ccccn1.[c-]1ccccc1-c1ccccn1 [Complex 3, [Ir(Hppy)2(DAP)]PF6] | 11.1 ± 1.3 | 59.7 ± 6.8 | increased | dramatically decreased | dramatically decreased | dramatically decreased | 68.8 ± 4.6 | 0.78 | 44.79 | inhibited cell proliferation at the S phase | 10.50 | 44.71 | > 100 | 41.8 | 13.7 | 48.90 |  |  |
| F[P-](F)(F)(F)(F)F.Nc1c([N+](=O)[O-])c2cccnc2c2ncccc12.[Ir+3].[c-]1ccccc1-c1ccccn1.[c-]1ccccc1-c1ccccn1 [Complex 2, [Ir(Hppy)2(NAP)]PF6] | 14.1 ± 0.5 | 52.6 ± 1.4 | increased | dramatically decreased | dramatically decreased | dramatically decreased | 68.7 ± 1.5 | 1.33 | 56.65 | cell cycle arrest at G0/G1 | 5.49 | 37.86 | 80.6 ± 1.4 | 35.6 | 14.8 | 46.01 | 9.03 |  |
| F[P-](F)(F)(F)(F)F.O=[N+]([O-])c1cc2ccc[n+]3c2c2c1ccc[n+]2[Ir-5]312([c]3ccccc3-c3cccc[n+]31)[c]1ccccc1-c1cccc[n+]12 [Complex 1, [Ir(Hppy)2(NP)]PF6] | 3.6 ± 0.1 | 16.3 ± 0.9 | increased | dramatically decreased | dramatically decreased | dramatically decreased | 23 ± 0.8 | 1.01 | 50.28 | inhibited cell proliferation at the S phase | 6.70 | 43.02 | 14.3 ± 2.4 | 37.07 | 29.9 | 51.09 |  | the same cytotoxicity as cisplatin |

From publication PMC6749586, “Design, Synthesis, and Anticancer Effect Studies of Iridium(III) Polypyridyl Complexes against SGC-7901 Cells” (Molecules, 2019)
